The target of series [1] is T1, RBM39 (Homo sapiens, UniProt Q14498+Q66K64). Put plainly: Western blot of RBM39 levels in 293T DCAF15 KO versus DCAF15-reconstituted cells. Details: endogenous in cells; host or cells: 293T DCAF15 KO and 293T reconstituted with tagged DCAF15. The settings on record: 293T cells reconstituted with tagged DCAF15, 10 h treatment. Type of series: cell-based. The procedure:
(§1) Given the structural similarity to indisulam, it was assayed if the two new test compounds would similarly lead to the degradation of RBM39 in a DCAF15-dependent manner. Towards that end, their effect on RBM39 levels in wildype cells as well as cells deficient for DCAF15 levels was tested. KBM7 (WT or knockout, FIG. 20) as well as 293T cells (DCAF15-HiBit overexpression vs knockout, see FIG. 21) were tested in various conditions of dCEMM.1 and/or dCEMM.2, comparing their effect to indisulam.
For orientation: Immunoblotting shows a protein as a band on a membrane.

For series [2], the target named is T2, DCAF15 (Homo sapiens, UniProt Q66K64).
T2 construct: expressed in transfected cells
The experiment in a line: High-throughput screen for DCAF15 stabilization in 293T cells expressing DCAF15 HiBit fusion. Type of series: cell-based. The settings on record: 10 uM, 384 well, measurements every 120 minutes. From the text: Subsequently, in this context, the E3 ligase substrate receptor (SR) stabilization approach was employed in order to identify novel chemical matter that can bind and chemically re-program the substrate receptor DCAF15. To be able to screen a collection of around 8000 small-molecules, a cellular system was developed that enabled monitoring of DCAF15 levels in live cells in multi-well format. To that end, DCAF15 was first knocked out in 293T cells via CRISPR/Cas9 technology. Then, DCAF15 was stably expressed as a HiBit® fusion protein in these cells. After further transducing these cells with LgBit, this allowed live-cell tracing of DCAF15 levels in 384 well format by measuring bioluminescence (FIG. 18). In brief, cells were seeded at a concentration of 250′000 cells/ml in DMEM+10% FCS+25 mM Hepes. The luciferase substrate Endurazine was added at concentrations recommended by the manufacturer. Small-molecules were added at a concentration of 10 uM, and their effect on DCAF15 levels was assayed by continuous bioluminescent imaging (measurements were taken every 120 minutes). […] The known DCAF15 molecular glue indisulam (see FIG. 7) was used as a positive control. In brief, indisulam is known to act as a DCAF15-dependent molecular glue that binds DCAF15 and induced proximity between DCAF15 and RBM39, leading to the degradation of the latter.
Background: HiBiT is a short tag that completes a luciferase, so light tracks the accessible tagged protein.

In another series the test system is KBM7 cells. Put plainly: Dose-ranging cellular viability assays in neddylation-impaired isogenic KBM7 cells. Type of series: cell-based, human. The procedure:
KBM7 cells mutated for five core genes were isolated and the underlying CRISPR-induced mutations were truncations leading to full knockouts (CAND1) or hypomorphic alleles (UBE2M, COPS8, COPS7B, GPS1). […] The observable shift in efficacy was at least 10-fold and up to 1000-fold, thus providing excellent signal to noise ratios. In sum, neddylation-impaired (NEDD^mut) cell line can be applied to find novel, yet uncharacterized MGs.
This is further exemplified when said cells are treated with the compound CC-885 (a molecular glue that reprograms the substrate receptor cereblon/CRBN to degrade GSPT1), or the PROTAC® compound THAL-SNS-032 (known to reprogram the substrate receptor cereblon/CRBN to degrade the cyclin dependent kinase 9, CDK9) (both see appended FIG. 22).
However, not for every cullin RING ligase (CRL), modifications of the COP9 signalosome subunit 8 (COPS8) or CAND1 (Cullin-associated NEDD8-dissociated protein 1; a substrate receptor exchange factor) lead to an ensuing destabilization via auto-degradation. An example for this is the substrate receptor VHL(von-Hippel-Lindau), which is part of the CRL2^VHL ligase complex. […] Therefore, measuring differential sensitivity of cells manipulated to contain altered neddylation states to a molecular glue/PROTAC® compound is a feasible surrogate to measure whether the substrate receptor that is reprogrammed by said molecular glue/PROTAC® undergoes destabilization/auto-degradation upon altering the neddylation states.

In series [3] the target is T1, RBM39. The experiment in a line: Western blot of RBM39 levels in KBM7 WT versus DCAF15-deficient cells. Type of series: cell-based. Details: endogenous in cells. The settings on record: 12 or 16 h treatment. On the procedure:
as §1

Series [4] concerns the target T2, DCAF15. The experiment in a line: DCAF15 HiBit/LgBit luciferase assay (knock-in or ectopic, live-cell or lytic detection). Type of series: cell-based. The procedure: Generation of HiBit DCAF15 knock-in cells: HEK293t WT cells at 70-80% confluency were transiently transfected in a 6 well plate with a mix of 3 ug Cas9-sgRNA vector (PX458, addgene #48138, containing sgRNA [NT]), 6 ug of single stranded oligonucleotide donor (ssOND, 20 bp homology flanking the cut site) and 3.6 ug polyethylenimine (FIGS. 10 and 12). 72 hrs post-transfection cells were sorted (SH800 Cell sorter, SONY) for GFP positive cells and recovered for 24 hrs in media. Cells were subsequently seeded at a limiting dilution to generate single clones. Clones were tested after outgrowth for HiBit expression by seeding clonal cells in a black clear bottom 384 well plate and adding Nano-Glo HiBit Lytic buffer (Promega, N3030) reconstituted with recombinant LgBit and Nano-Glo HiBit Lytic Substrate in a 1:1 ratio. HiBit-expressing clones were validated by western blotting and detection of luciferase signal (Promega, N2410) at the correct size. For live cell luciferase detection (FIGS. 11 and 13) 7000 HEK293t cells with a HiBit knock-in at the N-terminus of DCAF15 and stable ectopic expression of LgBit were seeded in 10 uL per well into a black, clear-bottom 384 well plate (Corning, #3764) and incubated over night. 20 uL of media containing 1× Endurazine (Promega, N2570) was added to each well and incubated for 1 hour followed by a baseline luciferase measurement using an EnVision plate reader (Perkin Elmer). Subsequently CSN5i-3 or an equal volume of DMSO was added in 10 uL of media to a final concentration of 500 nM in the assay volume of 40 uL. Luciferase signal was measured hourly for 24 hours. For lytic HiBit detection (FIGS. 11 and 14) 10000 cells were seeded in 10 uL per well into a black clear bottom 384 well plate. After recovery cells were treated by addition of iCSN5-3 or an equal volume of DMSO in 10 uL of media to the cells. After the indicated treatment time cells were lysed by adding 20 uL Nano-Glo HiBit Lytic buffer (Promega, N3030) reconstituted with recombinant LgBit and Nano-Glo HiBit Lytic Substrate. Luciferase signal of each well was normalized to the mean DMSO luciferase signal yielding fold-change over DMSO. Luciferase signal was detected essentially as stated for FIG. 13 with the exception that indisulam (Sigma-Aldrich, SML1225) was added together with CSN5i-3 to cells in 10 uL of media to reach the indicated final concentration (FIG. 15). Luciferase signal of each well and timepoint was normalized to the mean DMSO luciferase signal yielding fold-change over DMSO. […] Luciferase signal was detected essentially as stated for FIG. 15 with the exception that indisulam and dCEMM.1 were added together with iCSN5-3 to cells in the 10 uL treatment to a final concertation of 10 uM (FIG. 17). Luciferase signal of each well and timepoint was normalized to the mean DMSO luciferase signal yielding fold-change over DMSO.

Entries after “also recorded” stand apart in the source; their conditions may differ.

T2 sequence (Q66K64 whole entry): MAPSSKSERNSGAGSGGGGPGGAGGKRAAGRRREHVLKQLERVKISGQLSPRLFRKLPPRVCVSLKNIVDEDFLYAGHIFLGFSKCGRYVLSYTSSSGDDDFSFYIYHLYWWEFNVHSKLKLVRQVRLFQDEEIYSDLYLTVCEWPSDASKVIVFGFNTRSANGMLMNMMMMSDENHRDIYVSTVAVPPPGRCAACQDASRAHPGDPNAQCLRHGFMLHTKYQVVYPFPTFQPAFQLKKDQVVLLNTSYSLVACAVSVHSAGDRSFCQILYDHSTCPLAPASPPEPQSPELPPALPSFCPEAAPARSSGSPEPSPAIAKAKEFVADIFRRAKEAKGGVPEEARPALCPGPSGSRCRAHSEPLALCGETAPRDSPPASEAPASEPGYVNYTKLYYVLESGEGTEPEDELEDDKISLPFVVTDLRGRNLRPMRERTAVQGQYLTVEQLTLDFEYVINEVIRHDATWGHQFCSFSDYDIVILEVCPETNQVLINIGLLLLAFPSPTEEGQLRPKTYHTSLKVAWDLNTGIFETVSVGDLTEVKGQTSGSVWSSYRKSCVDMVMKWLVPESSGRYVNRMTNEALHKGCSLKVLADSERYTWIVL

For the molecule `NS(=O)(=O)c1ccc(S(=O)(=O)Nc2cccc3c(Cl)c[nH]c23)cc1` [indisulam], the “RBM39 levels (western blot)” value at RBM39 [1] and at RBM39 [3] was “destabilization” in each case. The “DCAF15 stabilization (relative luciferase signal over time)” value at DCAF15 [2] is reported as “pronounced stabilization of DCAF15 over time; also recorded: identified as positive hits; also recorded: significant stabilization of DCAF15 over time”. Moreover, the “Cytotoxic activity / sensitivity in COPS8- or CAND1-modified cells” value with KBM7 cells (KBM7 cells modified in COPS8 or CAND1 versus non-modified control) is “resistance to indisulam in both genetic backgrounds; also recorded: reduced activity”. Besides, the “Resistance of mutant cells in cellular viability assay” value in the series with KBM7 cells (KBM7 cells mutated in CAND1, UBE2M, COPS8, COPS7B or GPS1 versus wild type) is “caused resistance”. Besides, the “DCAF15 re-stabilization (luciferase, fold-change over DMSO)” value at DCAF15 [4] (HiBit knock-in live cells, added together with CSN5i-3 (FIG. 15)) was “rescues DCAF15 from auto-degradation; also recorded: DCAF15 re-stabilization”; on DCAF15 [4] (live cells, 10 uM, added together with CSN5i-3 (FIG. 17)), “rescues DCAF15 from auto-degradation; also recorded: DCAF15 re-stabilization”.

Source of the values: patent publication US20210293788A1, “METHOD FOR IDENTIFYING A CHEMICAL COMPOUND OR AGENT INDUCING UBIQUITINATION OF A PROTEIN OF INTEREST” (CeMM - Forschungszentrum fur Molekulare Medizin GmbH, priority 2018, published 2021).
